Measurements from ChEMBL document CHEMBL1909046, “DrugMatrix in vitro pharmacology data”.

Key:
Adenosine receptor A3 = biological target: T1, Adenosine receptor A3 (Homo sapiens, UniProt P0DMS8); format: cell membranes, CHO-K1, Membrane; conditions: for Ki: read-out: Ki;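 as to all read-outs here: radioligand binding assay with AB-MECA serving as the labeled ligand; in other assays of this panel Not Active means under 50% inhibition at 10 µM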
T1 sequence (P0DMS8 whole entry): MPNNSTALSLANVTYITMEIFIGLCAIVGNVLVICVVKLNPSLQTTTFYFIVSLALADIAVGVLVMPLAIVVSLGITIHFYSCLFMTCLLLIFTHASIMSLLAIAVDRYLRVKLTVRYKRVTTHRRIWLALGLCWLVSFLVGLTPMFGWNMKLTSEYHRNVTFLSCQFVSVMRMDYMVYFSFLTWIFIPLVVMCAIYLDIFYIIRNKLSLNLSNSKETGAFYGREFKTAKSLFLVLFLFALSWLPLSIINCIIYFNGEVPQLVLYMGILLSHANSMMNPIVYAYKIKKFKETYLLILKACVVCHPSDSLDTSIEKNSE

[1] = DRUGMATRIX: Serotonin (5-Hydroxytryptamine) 5-HT3 radioligand binding (ligand: [3H] GR-65630); format: cell membranes, Membrane; conditions: hek293; Not Active = under 50% inhibition at 10 µM
[2] = biological target: cGMP-specific 3',5'-cyclic phosphodiesterase (Homo sapiens, UniProt O76074); assay: DRUGMATRIX: Phosphodiesterase PDE5 enzyme inhibition (substrate: [3H]cGMP + cGMP); format: tissue-based; conditions: platelet; Not Active = under 50% inhibition at 10 µM
Cytochrome P450 2E1 = Cytochrome P450 2E1 (Homo sapiens, UniProt P05181); conditions: bti-tn-5b1-4; also: in other assays of this panel Not Active means under 50% inhibition at 10 µM
Sequence of Cytochrome P450 2E1 (P05181 whole entry): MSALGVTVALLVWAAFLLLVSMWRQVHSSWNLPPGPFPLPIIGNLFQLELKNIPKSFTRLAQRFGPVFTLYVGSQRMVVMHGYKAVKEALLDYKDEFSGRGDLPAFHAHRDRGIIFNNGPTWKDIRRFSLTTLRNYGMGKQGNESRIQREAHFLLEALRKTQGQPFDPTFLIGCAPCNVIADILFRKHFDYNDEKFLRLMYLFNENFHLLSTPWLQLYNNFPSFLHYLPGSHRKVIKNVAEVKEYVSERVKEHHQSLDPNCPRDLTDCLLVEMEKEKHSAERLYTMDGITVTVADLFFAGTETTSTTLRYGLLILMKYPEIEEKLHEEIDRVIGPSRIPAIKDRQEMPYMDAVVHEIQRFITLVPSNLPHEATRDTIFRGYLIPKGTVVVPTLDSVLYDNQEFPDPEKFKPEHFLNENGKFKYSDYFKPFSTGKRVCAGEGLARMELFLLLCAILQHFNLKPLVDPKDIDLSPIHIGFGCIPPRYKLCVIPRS

[3] = biological target: T2, Muscarinic acetylcholine receptor M2 (Homo sapiens, UniProt P08172); format: cell membranes, CHO-K1, Membrane; conditions: cho-k1; also: in other assays of this panel Not Active means under 50% inhibition at 10 µM
T2 sequence (P08172 whole entry): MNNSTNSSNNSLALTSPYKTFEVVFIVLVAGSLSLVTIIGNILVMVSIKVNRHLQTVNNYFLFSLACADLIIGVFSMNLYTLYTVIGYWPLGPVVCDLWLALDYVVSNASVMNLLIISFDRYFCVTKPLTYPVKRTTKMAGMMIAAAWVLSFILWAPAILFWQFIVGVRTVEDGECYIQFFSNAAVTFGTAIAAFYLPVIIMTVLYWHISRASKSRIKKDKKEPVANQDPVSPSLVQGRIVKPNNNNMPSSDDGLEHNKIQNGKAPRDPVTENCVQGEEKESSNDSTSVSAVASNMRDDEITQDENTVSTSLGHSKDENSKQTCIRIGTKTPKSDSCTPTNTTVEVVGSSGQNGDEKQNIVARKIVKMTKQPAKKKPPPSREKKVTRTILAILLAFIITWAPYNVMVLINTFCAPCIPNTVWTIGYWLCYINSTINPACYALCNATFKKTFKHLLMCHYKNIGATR

[4] = biological target: C-C chemokine receptor type 2 (Homo sapiens, UniProt P41597); format: cell membranes, CHO-K1, Membrane; conditions: cho-k1; also: in other assays of this panel Not Active means under 50% inhibition at 10 µM
Sequence of C-C chemokine receptor type 2 (P41597 whole entry): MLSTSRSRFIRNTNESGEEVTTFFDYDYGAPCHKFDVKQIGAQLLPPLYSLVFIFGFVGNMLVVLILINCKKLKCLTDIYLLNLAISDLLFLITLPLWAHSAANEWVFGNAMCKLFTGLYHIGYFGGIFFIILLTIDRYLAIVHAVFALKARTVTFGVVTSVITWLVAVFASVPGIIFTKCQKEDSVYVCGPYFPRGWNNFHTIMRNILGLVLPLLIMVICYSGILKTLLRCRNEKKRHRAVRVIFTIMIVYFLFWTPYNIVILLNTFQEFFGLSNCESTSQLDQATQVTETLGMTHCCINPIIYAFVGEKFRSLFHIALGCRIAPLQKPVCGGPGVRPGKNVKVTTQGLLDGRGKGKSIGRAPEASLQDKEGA

[5] = DRUGMATRIX: Tumor Necrosis Factor (TNF), Non-Selective radioligand binding (ligand: [125I] TNF-alpha); format: cell membranes, Membrane; conditions: u-937; Not Active = under 50% inhibition at 10 µM

SMILES | IC50 (Adenosine receptor A3; cho-k1) | IC50 [1] | Ki [1] | IC50 [2] | IC50 (Cytochrome P450 2E1) | Ki (Cytochrome P450 2E1) | IC50 [3] | IC50 [4] | IC50 [5] | Ki [5] | IC50 (Adenosine receptor A3; read-out: IC50) [µM] | Ki (Adenosine receptor A3) [µM]
NC(=O)N1c2ccccc2C=Cc2ccccc21 [CARBAMAZEPINE] | Not Active | Not Active | Not Active | Not Active | Not Active | Not Active | Not Active | Not Active | Not Active | Not Active |  | 
CCOC(=O)n1ccn(C)c1=S [CARBIMAZOLE] | Not Active | Not Active | Not Active | Not Active | Not Active | Not Active | Not Active | Not Active | Not Active | Not Active |  | 
Oc1ccccc1O [CATECHOL] | Not Active | Not Active | Not Active | Not Active | Not Active | Not Active | Not Active | Not Active | Not Active | Not Active |  | 
CO[C@@]1(NC(=O)CSCC#N)C(=O)N2C(C(=O)O)=C(CSc3nnnn3C)CS[C@@H]21 [CEFMETAZOLE] | Not Active | Not Active | Not Active | Not Active | Not Active | Not Active | Not Active | Not Active | Not Active | Not Active |  | 
CN(C(=O)CCCOc1ccc2[nH]c(=O)ccc2c1)C1CCCCC1 [CILOSTAMIDE] | Not Active | Not Active | Not Active | Not Active | Not Active | Not Active | Not Active | Not Active | Not Active | Not Active |  | 
CC(C)(Oc1ccc(C2CC2(Cl)Cl)cc1)C(=O)O (configuration not stated) [CIPROFIBRATE] | Not Active | Not Active | Not Active | Not Active | Not Active | Not Active | Not Active | Not Active | Not Active | Not Active |  | 
Nc1nc(Cl)nc2c1ncn2[C@H]1C[C@H](O)[C@@H](CO)O1 [CLADRIBINE] | Not Active | Not Active | Not Active | Not Active | Not Active | Not Active | Not Active | Not Active | Not Active | Not Active |  | 
CC[C@H]1OC(=O)[C@H](C)[C@@H](O[C@H]2C[C@@](C)(OC)[C@@H](O)[C@H](C)O2)[C@H](C)[C@@H](O[C@@H]2O[C@H](C)C[C@H](N(C)C)[C@H]2O)[C@](C)(OC)C[C@@H](C)C(=O)[C@H](C)[C@@H](O)[C@]1(C)O [CLARITHROMYCIN] | Not Active | Not Active | Not Active | Not Active | Not Active | Not Active | Not Active | Not Active | Not Active | Not Active |  | 
O=C(O)c1cc(=O)c2c(OCC(O)COc3cccc4oc(C(=O)O)cc(=O)c34)cccc2o1 [CROMOLYN] | Not Active | Not Active | Not Active | Not Active | Not Active | Not Active | Not Active | Not Active | Not Active | Not Active |  | 
O=P1(N(CCCl)CCCl)NCCCO1 (configuration not stated) [CYCLOPHOSPHAMIDE ANHYDROUS] | Not Active | Not Active | Not Active | Not Active | Not Active | Not Active | Not Active | Not Active | Not Active | Not Active |  | 
CC(=O)O[C@]1(C(C)=O)CC[C@H]2[C@@H]3C=C(Cl)C4=CC(=O)[C@@H]5C[C@@H]5[C@]4(C)[C@H]3CC[C@@]21C [CYPROTERONE ACETATE] | Not Active | Not Active | Not Active | Not Active | Not Active | Not Active | Not Active | Not Active | Not Active | Not Active |  | 
Nc1nc(N)nc(NC2CC2)n1 [CYROMAZINE] | Not Active | Not Active | Not Active | Not Active | Not Active | Not Active | Not Active | Not Active | Not Active | Not Active |  | 
C#C[C@]1(O)CC[C@H]2[C@@H]3CCC4=Cc5oncc5C[C@]4(C)[C@H]3CC[C@@]21C [DANAZOL] |  | Not Active | Not Active | Not Active | Not Active | Not Active | Not Active | Not Active | Not Active | Not Active | 11.2 | 6.31
CCN[C@@H](C)Cc1cccc(C(F)(F)F)c1 [DEXFENFLURAMINE] | Not Active | Not Active | Not Active | Not Active | Not Active | Not Active | Not Active | Not Active | Not Active | Not Active |  | 
C[C@H](C(=O)O)c1cccc(C(=O)c2ccccc2)c1 [DEXKETOPROFEN] | Not Active | Not Active | Not Active | Not Active | Not Active | Not Active | Not Active | Not Active | Not Active | Not Active |  | 
CN1C(=O)CN=C(c2ccccc2)c2cc(Cl)ccc21 [DIAZEPAM] | Not Active | Not Active | Not Active | Not Active | Not Active | Not Active | Not Active | Not Active | Not Active | Not Active |  | 
CN1C[C@H](C(=O)N[C@]2(C)O[C@@]3(O)[C@@H]4CCCN4C(=O)[C@H](Cc4ccccc4)N3C2=O)C[C@@H]2c3cccc4[nH]cc(c34)C[C@H]21 [DIHYDROERGOTAMINE] | Not Active | Not Active | Not Active | Not Active | Not Active | Not Active | Not Active | Not Active | Not Active | Not Active |  | 
Cc1c(N(C)CS(=O)(=O)[O-])c(=O)n(-c2ccccc2)n1C.[Na+] [DIPYRONE SODIUM] | Not Active | Not Active | Not Active | Not Active | Not Active | Not Active | Not Active | Not Active | Not Active | Not Active |  | 
CC(CCc1ccc(O)cc1)NCCc1ccc(O)c(O)c1 (configuration not stated) [DOBUTAMINE] | Not Active | Not Active | Not Active | Not Active | Not Active | Not Active | Not Active | Not Active | Not Active | Not Active |  | 
CCn1cc(C(=O)O)c(=O)c2cc(F)c(N3CCNCC3)nc21 [ENOXACIN] | Not Active | Not Active | Not Active | Not Active | Not Active | Not Active | Not Active | Not Active | Not Active | Not Active |  | 
CCC(=O)O[C@H]1[C@H](O[C@@H]2[C@@H](C)[C@H](O[C@H]3C[C@@](C)(OC)[C@@H](O)[C@H](C)O3)[C@@H](C)C(=O)O[C@H](CC)[C@@](C)(O)[C@H](O)[C@@H](C)C(=O)[C@H](C)C[C@@]2(C)O)O[C@H](C)C[C@@H]1N(C)C [ERYTHROMYCIN PROPIONATE] | Not Active | Not Active | Not Active | Not Active | Not Active | Not Active | Not Active | Not Active | Not Active | Not Active |  | 
C=C(CC)C(=O)c1ccc(OCC(=O)O)c(Cl)c1Cl [ETHACRYNIC ACID] | Not Active | Not Active | Not Active | Not Active | Not Active | Not Active | Not Active | Not Active | Not Active | Not Active |  | 
C#C[C@]1(O)CC[C@H]2[C@@H]3CCc4cc(O)ccc4[C@H]3CC[C@@]21C [ETHINYL ESTRADIOL] |  | Not Active | Not Active | Not Active | Not Active | Not Active | Not Active | Not Active | Not Active | Not Active | 32.9 | 18.6
